According to US5409933A, “Quinoline derivatives and processes for preparing the same” (priority 1993, dated 1995):
Structures can show the parent of a compound that is named as a salt. Where two headings read alike, the source gives them in different places.

What was measured:
Experiment in all cases: In Vitro Anti-Bacterial Activity Test (MIC, agar dilution)
Format in all cases: cell-based
[1] = test system: Staphylococcus aureus SG511; settings: Staphylococcus aureus SG511, Muller-Hinton agar, 37° C., 18 hours
Description: (§1) The above in vitro antibacterial activity test was carried out in accordance with the agar culture medium dilution method (Hoechst 345) by using Muller-Hinton agar medium to determine the minimum inhibitory concentration (MIC).
(§2) The strains having 10^7 C.F.U./ml were inoculated on the culture medium, and the growth of the strains was observed after incubating them at 37° C. for 18 hours, in which ciprofloxacin was used as a control antibacterial agent. In this test, twenty typical strains were used.

[2] = test system: Staphylococcus aureus 503; settings: Staphylococcus aureus 503, Muller-Hinton agar, 37° C., 18 hours
Description: as §1, §2

[3] = test system: Streptococcus faecium MD8b; settings: Muller-Hinton agar, 37° C., 18 hours
Description: as §1, §2

[4] = test system: Streptococcus pyogenes 77A
Description: as §1, §2

Salmonella typhimurium = settings: Salmonella typhimurium, Muller-Hinton agar, 37° C., 18 hours
Description: as §1, §2

Escherichia coli DC2 = test system: Escherichia coli DC2
Description: as §1, §2

[5] = test system: Pseudomonas aeruginosa 1771M; settings: Muller-Hinton agar, 37° C.
Description: as §1, §2

[6] = test system: Staphylococcus aureus 285; settings: Staphylococcus aureus 285, Muller-Hinton agar, 37° C., 18 hours
Description: as §1, §2

Enterobacter cloacae P99 = test system: Enterobacter cloacae P99
Description: as §1, §2

Escherichia coli 078 = test system: Escherichia coli 078
Description: as §1, §2

Escherichia coli DC0 = settings: Muller-Hinton agar, 37° C., 18 hours
Description: as §1, §2

[7] = test system: Pseudomonas aeruginosa 1592E; settings: Muller-Hinton agar, 37° C., 18 hours
Description: as §1, §2

Escherichia coli 1507E = settings: Muller-Hinton agar, 37° C.
Description: as §1, §2

[8] = test system: Klebsiella aerogenes 1522E; settings: Klebsiella aerogenes 1522E, Muller-Hinton agar, 37° C., 18 hours
Description: as §1, §2

[9] = test system: Pseudomonas aeruginosa 9027; settings: Muller-Hinton agar, 37° C., 18 hours
Description: as §1, §2

[10] = test system: Streptococcus pyogenes 308A; settings: Muller-Hinton agar, 37° C., 18 hours
Description: as §1, §2

[11] = test system: Pseudomonas aeruginosa 1771; settings: Pseudomonas aeruginosa 1771, Muller-Hinton agar, 37° C., 18 hours
Description: as §1, §2

[12] = test system: Enterobacter cloacae 1321E; settings: Enterobacter cloacae 1321E, Muller-Hinton agar, 37° C., 18 hours
Description: as §1, §2

Klebsiella oxytoca 1082E = settings: Klebsiella oxytoca 1082E, Muller-Hinton agar, 37° C., 18 hours
Description: as §1, §2

Escherichia coli TEM = settings: Muller-Hinton agar, 37° C.
Description: as §1, §2

[13] = Enterococcus faecium, read-out: MIC
[14] = Streptococcus pyogenes, 77A, 18 h
[15] = Salmonella enterica, read-out: MIC
[16] = Pseudomonas aeruginosa, 1771M, 18 h
[17] = Enterobacter cloacae, P99, 18 h
[18] = Escherichia coli 078, Muller-Hinton agar, 37° C., 18 hours, read-out: MIC
[19] = Klebsiella aerogenes, 1522E, 18 h, read-out: MIC
[20] = Staphylococcus aureus, 285, 18 h, read-out: MIC

Compound	MIC ([1]; read-out: MIC) [µg/mL]	MIC ([2]; read-out: MIC) [µg/mL]	MIC [3, 13] [µg/mL]	MIC [4, 14] [µg/mL]	MIC (Salmonella typhimurium; [15]) [µg/mL]	MIC (Escherichia coli DC2; Escherichia coli, DC2, 18 h) [µg/mL]	MIC [5, 16] [µg/mL]	MIC (Enterobacter cloacae P99; [17]) [µg/mL]	MIC (Escherichia coli DC0; read-out: MIC) [µg/mL]	MIC ([7]; read-out: MIC) [µg/mL]	MIC (Escherichia coli 1507E; Escherichia coli, 1507E, 18 h) [µg/mL]	MIC [8, 19] [µg/mL]	MIC ([9]; read-out: MIC) [µg/mL]	MIC ([10]; read-out: MIC) [µg/mL]	MIC ([11]; read-out: MIC) [µg/mL]	MIC ([12]; read-out: MIC) [µg/mL]	MIC (Klebsiella oxytoca 1082E; read-out: MIC) [µg/mL]	MIC (Escherichia coli TEM; Escherichia coli, 18 h) [µg/mL]	MIC [6, 20] [µg/mL]	MIC (Escherichia coli 078; Escherichia coli, 078, 18 h) [µg/mL]	also measured
1-cyclopropyl-6-fluoro-8-chloro-7-(7-amino-5-azaspiro[2.4]hept-5-yl)-3-(2- nitroacetyl)-1,4-dihydro-4-oxoquinoline hydrochloride [Example 35]	–	–	–	–	–	–	–	–	–	–	–	–	–	–	–	–	–	–	–	–	MIC [1]: 0.025 µg/mL; MIC [2]: 0.013 µg/mL; MIC [3]: 0.098 µg/mL; MIC ([4]; Streptococcus pyogenes 77A, Muller-Hinton agar, 37° C., 18 hours): 0.098 µg/mL; MIC (Salmonella typhimurium): 0.013 µg/mL; MIC (Escherichia coli DC2; Escherichia coli DC2, Muller-Hinton agar, 37° C., 18 hours): 0.049 µg/mL; MIC ([5]; 18 hours): 0.098 µg/mL; MIC [6]: 0.025 µg/mL; MIC (Enterobacter cloacae P99; Enterobacter cloacae P99, Muller-Hinton agar, 37° C., 18 hours): 0.025 µg/mL; MIC (Escherichia coli 078; Escherichia coli 078, Muller-Hinton agar, 37° C., 18 hours): 0.007 µg/mL; MIC (Escherichia coli DC0): 0.098 µg/mL; MIC [7]: 0.781 µg/mL; MIC (Escherichia coli 1507E; 18 hours): 0.007 µg/mL; MIC [8]: 0.013 µg/mL; MIC [9]: 0.781 µg/mL; MIC [10]: 0.195 µg/mL; MIC [11]: 0.391 µg/mL; MIC [12]: 0.025 µg/mL; MIC (Klebsiella oxytoca 1082E): < 0.002 µg/mL; MIC (Escherichia coli TEM; 18 hours): 0.013 µg/mL
O=C(C[N+](=O)[O-])c1cn(C2CC2)c2cc(N3CCNCC3)c(F)cc2c1=O [Example 4, 1-cyclopropyl-6-fluoro-7-(piperazin-1-yl)-3-(2-nitroacetyl)-1,4-dihydro-4-oxoquinoline hydrochloride]	0.195	0.781	0.781	0.781	0.007	0.391	0.098	0.007	0.195	0.195	0.007	0.013	0.195	3.12	0.195	< 0.002	< 0.002	0.013	–	–	MIC ([6]; hydrochloride): 0.391 µg/mL; MIC (Escherichia coli 078; [18]): < 0.002 µg/mL
O=C(C[N+](=O)[O-])c1cn(C2CC2)c2cc(N3CCNCC3)c(F)cc2c1=O [Example 5, 1-cyclopropyl-6-fluoro-7-(piperazin-1-yl)-3-(2-nitroacetyl)-1,4-dihydro-4-oxoquinoline trifluoroacetate]	–	–	–	–	–	–	–	–	–	–	–	–	–	–	–	–	–	–	–	–	MIC ([5]; 18 hours, trifluoroacetate): 0.049 µg/mL; MIC ([6]; trifluoroacetate): 0.195 µg/mL; MIC (Escherichia coli 1507E; 18 hours, read-out: MIC): 0.013 µg/mL; MIC ([8]; trifluoroacetate): 0.025 µg/mL; MIC (Escherichia coli TEM; 18 hours, trifluoroacetate): 0.007 µg/mL
O=C(C[N+](=O)[O-])c1cn(C2CC2)c2c(F)c(N3CCNCC3)c(F)cc2c1=O [Example 6, 1-cyclopropyl-6,8-difluoro-7-(piperazin-1-yl)-3-(2-nitroacetyl)-1,4-dihydro-4-oxoquinoline hydrochloride]	0.098	0.391	0.781	0.781	< 0.002	0.098	0.049	< 0.002	0.195	0.195	–	0.007	0.391	3.12	0.195	< 0.002	< 0.002	< 0.002	0.195	–	MIC (Escherichia coli 078; [18]): < 0.002 µg/mL; MIC (Escherichia coli 1507E; 18 hours, read-out: MIC): < 0.002 µg/mL
CC1CN(c2c(F)cc3c(=O)c(C(=O)C[N+](=O)[O-])cn(C4CC4)c3c2F)CCN1 (stereo not shown) [Example 7, 1-cyclopropyl-6,8-difluoro-7-(3-methylpiperazin-1-yl)-3-(2-nitroacetyl)-1,4-dihydro-4-oxoquinoline hydrochloride]	0.391	0.391	0.781	0.781	0.098	0.391	0.391	0.391	0.391	0.781	0.025	0.391	0.781	1.56	1.56	0.013	< 0.002	0.195	0.391	0.049	–
NC1CCN(c2nc3c(cc2F)c(=O)c(C(=O)C[N+](=O)[O-])cn3-c2ccc(F)cc2F)C1 (stereo not shown) [Example 8, 1-(2,4-difluorophenyl)-6-fluoro-7-(3-aminopyrrolidin-1-yl)-3-(2-nitroacetyl)-1,4-dihydro-4-oxo-1,8-naphthyridinehydrochloride]	0.049	0.025	0.391	–	0.007	0.013	0.049	< 0.002	0.195	0.195	0.007	0.007	0.391	0.781	0.391	< 0.002	< 0.002	< 0.002	0.025	0.007	MIC ([4]; Streptococcus pyogenes 77A, Muller-Hinton agar, 37° C., 18 hours, read-out: MIC): 0.195 µg/mL
CCOC(=O)C(C(=O)OCC)C(=O)c1cn(C2CC2)c2c(OC)c(N3CC[C@H](NC)C3)c(F)cc2c1=O [Example 59, 1-cyclopropyl-6-fluoro-8-methoxy-7-(3-3S-methylaminopyrrolidin-1-yl)-3-(2,2-diethoxycarbonylacetyl)-1,4-dihydro-4-oxoquinoline hydrochloride]	0.098	0.098	0.781	0.781	0.049	0.098	0.781	0.049	0.781	–	0.391	0.098	1.56	0.781	1.56	0.049	0.007	0.049	0.098	0.049	–
